Laboratory results: PubChem BioAssay AID687022 (Broad Institute, 2013)
Activity calls are given as the source filed them.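 How the source made its calls: active means Fitted curve of melting temperature shift crosses the 1.0 threshold at or below the sample's highest valid tested concentration; inconclusive means Flat fit with activity 30 to 70, or invalid fit; inactive means Opposite direction, flat within 30, or no crossing.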

molecular target: Fibroblast growth factor 22 (Homo sapiens) (UniProt Q9HCT0); experiment: binders of human FGF22 protein, dose response, FGF22 synaptogenesis inhibitor project, biophysical, thermal shift, cherry-pick (AID 687022); conditions: recombinant FGF22 thermal shift, SYPRO orange melting
Sequence (Q9HCT0 whole entry, looked up): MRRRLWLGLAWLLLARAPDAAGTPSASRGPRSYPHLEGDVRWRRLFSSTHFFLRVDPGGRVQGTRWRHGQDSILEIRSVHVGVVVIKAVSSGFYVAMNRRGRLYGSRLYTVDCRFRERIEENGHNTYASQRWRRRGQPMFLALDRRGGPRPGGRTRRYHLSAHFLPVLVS

| SMILES | AbsAC1 (concentration giving Tm-shift threshold 1.0) |
| --- | --- |
| Cc1cc(C(=O)N/N=C/c2c[nH]c3ccccc23)cs1 | 2.23 µM |
| O=C(N/N=C/c1ccc(C(F)(F)F)cc1)c1ccc(O)cc1 | 2.48 µM |
| O=C(N/N=C/c1ccc[nH]1)c1cc2ccccc2cc1O | 3.23 µM |
| CC(=O)Nc1ccc(S(=O)(=O)NCCc2c[nH]c3ccc(C)cc23)cc1 | 21.6 µM |
| O=C(Nc1ccc(Cl)cc1)N[C@@H]1CC[C@@H](CCNS(=O)(=O)c2ccccc2F)O[C@H]1CO | 5.88 µM |
| NC(=NCCc1c[nH]c2ccccc12)NS(=O)(=O)c1ccc(F)cc1 | 6.63 µM |
| COc1ccc(-c2cn(CC[C@H]3CC[C@H](NC(=O)Nc4ccc(F)cc4)[C@@H](CO)O3)nn2)cc1 | 18 µM |
| COc1ccc(/C(=N\Nc2ccccc2C(=O)O)c2ccccc2)cc1 | > 19.5 µM (inactive) |
| Cc1ccc(OCCCC(=O)Nc2ccc(S(=O)(=O)N3CCOCC3)cc2)cc1 | 2.45 µM |
| O=C(Nc1ccc(S(=O)(=O)NCc2ccccc2)cc1)c1ccccc1[N+](=O)[O-] | 12 µM |
| CCN(CC)c1ccc(/C=N/NC(=O)c2c[nH]c3ccccc23)cc1 | 26.8 µM |
| O=C(N/N=C/c1c[nH]c2ccc(Br)cc12)C1CC1 | 7.7 µM |
| O=C(Cc1c[nH]c2ccccc12)N1CCN(S(=O)(=O)c2cccc(Cl)c2Cl)CC1 | 13.4 µM |
| COc1ccc(NS(=O)(=O)c2ccc(Cl)c(N)c2)cc1Br | 4.09 µM |
| O=C(N/N=C\c1cccnc1)c1cc(-c2ccc(Cl)s2)[nH]n1 | > 38 µM (inactive) |
| Cn1ncc2c(Nc3ccc(Cl)c(Cl)c3)ncnc21 | 24.9 µM |
| O=C(N/N=C\c1c[nH]c2ccccc12)c1ccc(O)cc1 | 1.85 µM |
| COc1ccc(N2C(=O)C(CC(=O)Nc3ccccc3)N(Cc3ccc4c(c3)OCO4)C2=O)cc1 (configuration not stated) | 6.04 µM |
| CCOc1ccc(NC(=O)CC2C(=O)N(c3ccc(OC)cc3)C(=S)N2Cc2ccccn2)cc1 (configuration not stated) | 3.11 µM |
| O=[N+]([O-])c1ccc(N/N=C/c2ccc[nH]2)cc1 | 8.39 µM |
| Cc1cccc(S(=O)(=O)N2C[C@@H](O)COC[C@H]3O[C@H](CC(=O)Nc4ccc(-c5ccccc5)cc4)CC[C@@H]32)c1 | 16.6 µM |

| SMILES | AbsAC1 (concentration giving Tm-shift threshold 1.0) |
| --- | --- |
| CCc1nnc(NS(=O)(=O)c2ccc(NC(=O)c3ccc(Br)cc3)cc2)s1 | 5.81 µM |
| COc1ccccc1NC(=O)N[C@@H]1CC[C@H](CCn2cc(-c3ccccc3OC)nn2)O[C@@H]1CO | 32 µM |
| COc1cccc(NC(=O)N(C)C[C@@H]2Oc3cc(-c4ccccc4F)ccc3S(=O)(=O)N([C@@H](C)CO)C[C@H]2C)c1 | 16.3 µM |
| CC(C)c1c(C(=O)N/N=C/c2c[nH]c3ccccc23)nnn1-c1nonc1N | 1.67 µM |
| COc1ccc(N(CC(=O)N/N=C/c2ccc(OC)c(OC)c2)S(=O)(=O)c2ccccc2)cc1 | 18.5 µM |
| O=C(CCc1ccccc1)c1c(O)cc(O)cc1O | > 5 µM (inactive) |
| CCOC(=O)c1ccc(S(=O)(=O)Nc2cc(C(=O)O)ccc2Cl)cc1 | 26.2 µM |
| COc1ccc([N+](=O)[O-])cc1/C=N/Nc1nn[nH]n1 | 6.12 µM |
| O=c1c(O)c(-c2cc(O)c(O)c(O)c2)oc2cc(O)cc(O)c12 | 4.37 µM |
| CCCNC(=O)COC(=O)c1ccccc1C(=O)N(C)C1CCCCC1 | 3.78 µM |
| O=C(Nc1cccnc1)c1ccc(NS(=O)(=O)c2cccc([N+](=O)[O-])c2)cc1 | 8.48 µM |
| O=C(NN=Cc1ccc(O)cc1O)c1ccccc1NS(=O)(=O)c1cccs1 | 32.7 µM |
| O=C(C[C@@H]1CC[C@@H]2[C@H](COC[C@@H](O)CN2S(=O)(=O)c2cccc(F)c2)O1)Nc1ccc(-c2ccccc2)cc1 | 22.3 µM |
| O=S(=O)(Nc1nnc(C(F)(F)F)s1)c1ccc(Cl)cc1 | 3.42 µM |
| O=c1c2ccccc2[nH]c2ccc(F)cc12 | > 38 µM (inactive) |
| COc1cc(/C=N/NC(=O)c2cc3ccccc3[nH]2)ccc1O | 1.49 µM |
| C[C@H](CO)N1C[C@H](C)[C@@H](CN(C)C(=O)C2CC2)OCc2ccccc2-c2ccccc2C1=O | 35.4 µM |
| CCC(C)n1c(O)c(C(c2ccccn2)c2c(O)n(C(C)CC)c(=S)[nH]c2=O)c(=O)[nH]c1=S (configuration not stated) | 20.7 µM |
| O=C(Cn1cc(COc2ccc(Br)cc2)nn1)c1ccc(O)cc1 | 7.63 µM |
| CCOC(=O)c1sc(N2C(=O)C(O)=C(C(=O)c3ccco3)C2c2ccc([N+](=O)[O-])cc2)nc1C (configuration not stated) | 5.28 µM |
| Cc1cccc(OC(C)C(=O)Nc2ccc3c(c2)OCCO3)c1 (configuration not stated) | 15.1 µM |
